{
  "source": "patent US5328913A",
  "about": "“Minoxidil analogs as inhibitors of cell proliferation and lysyl hydroxylase” (priority 1992, dated 1994)",
  "key": {"lysyl hydroxylase [1]": {"system": "lysyl hydroxylase", "test": "Lysyl hydroxylase activity in extracts of treated human skin fibroblasts (Example 1, tritium-release assay)", "format": "cell-based", "conditions": "cultured fibroblasts, 72 h, Example 1", "procedure": "(§1) Cultures of human skin fibroblasts grown to confluence were incubated for 72 h in medium supplemented with 1% ethanol containing various concentrations of minoxidil or deoxyminoxidil as indicated. Cells were then harvested, and the enzyme activities in extracts of these cells were measured by tritium-release assays (Murad and Pinnell, J. Biol. Chem. 262:11,973 (1987)). The results are expressed as percentages of zero-concentration values.\nas §1, with “with 1% acetone containing various concentrations of minoxidil sulfate,” for “deoxyminoxidil”, “tritium release” for “tritium-release”\n(§2) Skin fibroblast cultures derived from an apparently normal child (GM05659) were obtained from the Institute for Medical Research, Camden, N.J. The cells were subcultured by trypsinization and used before 25 population doublings. Typically, 4×10^5 cells were seeded onto 100-mm (diameter) plastic petri dishes and allowed to grow in 10 ml of Dulbecco's modified Eagle's minimum essential medium containing 5.6 mM glucose, buffered in pH 7.4 with 24 mM sodium biocarbonate/25 mM Hepes and supplemented with 20% (v/v) calf serum which had been inactivated for 30 min at 56° C. The cells were incubated at 37° C. in a humidified atmosphere of 5% CO2 plus 95% air.\n(§3) After a week, the medium was replaced with medium supplemented with 0.5% heat-inactivated diaylzed calf serum, and the incubation was continued for 72 h in the presence of minoxidil or one of its structural analogs. The compounds were dissolved in 95% ethanol, except minoxidil sulfate which was dissolved in acetone; the final solvent concentration was 1% (v/v). During the last 3 h of incubation, cells received 100 μM Na L-ascorbate to ensure complete hydroxylation of the polypeptide precursors of precollagen (Murad et al, J. Invest. Dermatol. 75:404 (1980)).\nThe medium was then removed and the cells were washed twice with a solution containing 0.14 M NaCl, 5 mM KCl, 0.3 mM Na2 PO4, and 0.4 mM KH2 PO4, adjusted to pH 7.4. The cells were detached from the plates with a solution containing 0.05% trypsin, 0.54 mM EDTA, 5.5mM glucose, 6.90mM NaHCO3, […], and 5 mM KCl. The trypsinization was terminated with 2 vol of 20% serum-supplemented medium, and the cell number in an aliquot of the suspension was determined using a Coulter counter.\nThe detached cells were collected by centrifugation at 500g for 6 min at 4° C. washed twice by suspending in phosphate-buffered NaCl/KCl as above, and then centrifuged. The cell pellet was suspended in a medium (1 ml/5×10^6 cells) containing 0.2 M NaCl, 0.1 M glycine, 50 μM dithiothreitol, 20 mM Tris-HCl, buffer (pH 7.5), 0.1% Triton X-100, and 0.01% soybean trypsin inhibitor. The suspension was sonicated for 30 s using a Branson sonifier cell disrupter. The lysate was centrifuged at 27,000g for 1 h at 4° C., and the resulting supernatant was used for prolyl and lysyl hydroxylase assays (Murad and Pinnell, J. Biol. Chem. 262:11, 973 (1987)). The enzyme activities are based on a unit of soluble cell protein.\n(§4) The protein content of cell extracts was determined by a dye-binding technique using Bio-Rad reagent and protein standard (Bradford, Anal. Biochem. 72:248 (1976)).\nNote: Cultures of human skin fibroblasts grown to confluence were\nincubated for 72 h in medium supplemented with 1% ethanol containing 1 mM\nof the indicated compounds. Cells were then harvested, and the enzyme\nactivity in extracts of these cells was measured by a tritiumrelease\nincubated for 72 h in medium supplemented with 1% ethanol containing 1 nM"}, "prolyl hydroxylase": {"system": "prolyl hydroxylase", "test": "Prolyl hydroxylase activity in extracts of treated human skin fibroblasts (Example 1, tritium-release assay)", "format": "cell-based", "conditions": "cultured fibroblasts, 72 h, Example 1", "procedure": "as §1\nas §1, with “with 1% acetone containing various concentrations of minoxidil sulfate,” for “deoxyminoxidil”, “tritium release” for “tritium-release”\nas §2, §3\nThe medium was then removed and the cells were washed twice with a solution containing 0.14 M NaCl, 5 mM KCl, 0.3 mM Na2 PO4, and 0.4 mM KH2 PO4, adjusted to pH 7.4. […] The trypsinization was terminated with 2 vol of 20% serum-supplemented medium, and the cell number in an aliquot of the suspension was determined using a Coulter counter. […]\nas §4"}, "lysyl hydroxylase [2]": {"target": "T1, lysyl hydroxylase (Homo sapiens, UniProt Q02809)", "T1 sequence (Q02809 19-727)": "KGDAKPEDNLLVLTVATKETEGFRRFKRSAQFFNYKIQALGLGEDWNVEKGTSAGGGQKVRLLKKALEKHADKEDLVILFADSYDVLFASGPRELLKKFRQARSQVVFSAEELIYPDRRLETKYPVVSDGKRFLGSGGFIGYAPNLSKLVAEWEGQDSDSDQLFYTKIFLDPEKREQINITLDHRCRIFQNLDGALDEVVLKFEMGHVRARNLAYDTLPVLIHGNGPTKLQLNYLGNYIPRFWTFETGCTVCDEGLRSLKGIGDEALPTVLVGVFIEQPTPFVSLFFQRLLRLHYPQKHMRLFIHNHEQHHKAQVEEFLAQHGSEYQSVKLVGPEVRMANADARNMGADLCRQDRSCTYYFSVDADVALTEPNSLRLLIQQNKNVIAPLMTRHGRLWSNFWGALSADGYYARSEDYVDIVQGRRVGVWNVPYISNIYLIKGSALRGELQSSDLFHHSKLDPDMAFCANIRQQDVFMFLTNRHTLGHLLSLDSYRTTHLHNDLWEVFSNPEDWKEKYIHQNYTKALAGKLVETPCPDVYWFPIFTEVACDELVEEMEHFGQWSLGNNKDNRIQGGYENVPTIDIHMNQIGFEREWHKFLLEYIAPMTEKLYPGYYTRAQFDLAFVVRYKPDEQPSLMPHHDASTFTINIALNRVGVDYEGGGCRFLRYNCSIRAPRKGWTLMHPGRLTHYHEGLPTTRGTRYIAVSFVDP", "test": "Direct inhibition of enzyme activity in vitro / mixing experiments with cell extracts", "format": "biochemical"}, "[3]": {"test": "Solubility with acetone as solvent", "format": "physicochemical", "conditions": "acetone as the solvent; concentrations higher than 500 μM could not be tested"}},
  "note": "Where a name gives a salt, the structure may show the parent alone.",
  "data": [
    {"molecule": "Nc1cc(N2CCCCC2)nc(N)[n+]1OS(=O)(=O)[O-]", "note": "[Minoxidil sulfate]", "values": [
      {"measurement": "effect on lysyl hydroxylase activity (in words)", "setting": "lysyl hydroxylase [1]", "result": "suppressed lysyl hydroxylase activity in a manner almost identical to that observed with minoxidil"},
      {"measurement": "effect on prolyl hydroxylase activity (in words)", "setting": "prolyl hydroxylase", "result": "no change in prolyl hydroxylase activity"},
      {"measurement": "inhibition of lysyl hydroxylase activity in vitro (in words)", "setting": "lysyl hydroxylase [2]", "result": "failed to inhibit lysyl hydroxylase activity in vitro"},
      {"measurement": "solubility (in words)", "setting": "[3]", "result": "limited solubility"}
    ]}
  ]
}
